# Measurements: patent publication US9249163B2, “PDE10a inhibitors for the treatment of type II diabetes” (Janssen Pharmaceutica, NV, priority 2013, dated 2016)
# Where a name gives a salt, the structure may show the parent alone.
# Experiments:
# [1] = molecular target: Rat recombinant PDE10a (rPDE10a) (Rattus norvegicus (Rat), UniProt Q9QYJ6); assay: In vitro assay PDE10a (rat recombinant PDE10a, SPA); assay type: biochemical; conditions: 60 nM cAMP, 60 min at rt, read-out: rPDE10a2 IC50
# Method in brief: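 Rat PDE10a expressed in Sf9 cells (baculovirus) and Ni-sepharose purified. Incubated with compound for 60 min at rt in 50 mM Tris pH 7.8, 8.3 mM MgCl2, 1.7 mM EGTA with 60 nM cAMP plus 0.008 μCi ^3H-cAMP (final), 1% DMSO. Read-out by PDE SPA bead scintillation counting (cpm), no-enzyme blank.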
# [2] = PDE10a-perfused brain permeability study (plasma and brain concentrations); conditions: male, Sprague-Dawley, rat; for Kp at 2 h: brain/plasma
# Description: Drug administration by oral gavage, subcutaneous injection or intravenous was carried out using male Sprague Dawley rats under IACUC protocol (SH-MET3010). Male Sprague Dawley rats (Charles River) ˜300-350 g were maintained on a 4% standard rodent diet (Test Diet 5001). They are allowed ad libitum access to water and food. Room temperature was maintained at 64° F. and humidity at 30-70%.
# Three animals per compound were provided a dose of 2 mg/mL in 20% HpbCD/Tris pH 8 by tail i.v. or 30 mpk p.o. or s.c. in 20% HpbCD/Tris pH 8, with PDE10a antagonists. A first blood sample was collected at 30 min via retro-orbital sinus (anesthetic by 70% CO2/30% O2) into heparinzed plasma separator tubes. The blood was centrifuged and 100 uL plasma was placed into a 96 well plate and saved on dry ice.
# After the 120 min, the final blood sample was collected via retro-orbital sinus under anesthesia by IP 0.5 cc injection of a 4/1 mixture of Ketaset: AnaSed [(prepared 10 mL Ketaset (100 mg/mL Ketamine)+2.5 mL AnaSed (20 mg/mL Xylazine)]. The rats were then perfused with 400 mL heparinized saline (10,000 units/L) through the left ventricle of the heart; the brains were then removed (not including the medulla), weighed and homogenized in PBS (4 mL/g tissue). The samples were stored at −80° C. and submitted for chemical analysis of blood and brain concentrations. Endpoints of sample analysis consists of the plasma concentrations at 30 and 120 min, plus brain concentrations at 120 min.
# [3] = molecular target: Human recombinant PDE10A2 (Homo sapiens (Human), UniProt Q9Y233); assay: In vitro hPDE10a (human recombinant PDE10A2, scintillation proximity assay); assay type: biochemical; conditions: human recombinant PDE10A2, 60 nM cAMP, 60 min at room temperature; read-out: hPDE10a2 IC50
# Chain of Human recombinant PDE10A2 (Q9Y233 267-1055): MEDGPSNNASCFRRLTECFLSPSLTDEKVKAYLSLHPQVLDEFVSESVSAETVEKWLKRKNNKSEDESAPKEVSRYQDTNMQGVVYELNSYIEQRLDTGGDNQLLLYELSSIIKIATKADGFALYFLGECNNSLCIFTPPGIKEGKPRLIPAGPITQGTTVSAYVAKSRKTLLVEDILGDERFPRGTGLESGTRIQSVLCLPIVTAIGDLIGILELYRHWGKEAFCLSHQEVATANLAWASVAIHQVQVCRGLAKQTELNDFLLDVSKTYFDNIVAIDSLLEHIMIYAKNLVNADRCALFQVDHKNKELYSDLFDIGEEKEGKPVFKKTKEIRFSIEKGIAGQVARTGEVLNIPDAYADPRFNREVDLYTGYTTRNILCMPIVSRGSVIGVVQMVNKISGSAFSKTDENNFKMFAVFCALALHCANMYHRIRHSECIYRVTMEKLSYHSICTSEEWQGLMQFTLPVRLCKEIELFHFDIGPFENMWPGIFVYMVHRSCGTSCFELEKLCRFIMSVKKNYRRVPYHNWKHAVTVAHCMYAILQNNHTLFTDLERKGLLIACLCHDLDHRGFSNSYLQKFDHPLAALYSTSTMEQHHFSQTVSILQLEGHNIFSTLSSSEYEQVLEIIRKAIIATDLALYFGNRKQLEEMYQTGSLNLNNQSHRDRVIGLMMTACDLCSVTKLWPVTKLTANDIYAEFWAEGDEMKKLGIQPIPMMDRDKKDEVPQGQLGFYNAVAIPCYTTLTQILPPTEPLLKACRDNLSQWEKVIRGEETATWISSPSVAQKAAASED
# Chain of Rat recombinant PDE10a (rPDE10a) (Q9QYJ6 whole entry): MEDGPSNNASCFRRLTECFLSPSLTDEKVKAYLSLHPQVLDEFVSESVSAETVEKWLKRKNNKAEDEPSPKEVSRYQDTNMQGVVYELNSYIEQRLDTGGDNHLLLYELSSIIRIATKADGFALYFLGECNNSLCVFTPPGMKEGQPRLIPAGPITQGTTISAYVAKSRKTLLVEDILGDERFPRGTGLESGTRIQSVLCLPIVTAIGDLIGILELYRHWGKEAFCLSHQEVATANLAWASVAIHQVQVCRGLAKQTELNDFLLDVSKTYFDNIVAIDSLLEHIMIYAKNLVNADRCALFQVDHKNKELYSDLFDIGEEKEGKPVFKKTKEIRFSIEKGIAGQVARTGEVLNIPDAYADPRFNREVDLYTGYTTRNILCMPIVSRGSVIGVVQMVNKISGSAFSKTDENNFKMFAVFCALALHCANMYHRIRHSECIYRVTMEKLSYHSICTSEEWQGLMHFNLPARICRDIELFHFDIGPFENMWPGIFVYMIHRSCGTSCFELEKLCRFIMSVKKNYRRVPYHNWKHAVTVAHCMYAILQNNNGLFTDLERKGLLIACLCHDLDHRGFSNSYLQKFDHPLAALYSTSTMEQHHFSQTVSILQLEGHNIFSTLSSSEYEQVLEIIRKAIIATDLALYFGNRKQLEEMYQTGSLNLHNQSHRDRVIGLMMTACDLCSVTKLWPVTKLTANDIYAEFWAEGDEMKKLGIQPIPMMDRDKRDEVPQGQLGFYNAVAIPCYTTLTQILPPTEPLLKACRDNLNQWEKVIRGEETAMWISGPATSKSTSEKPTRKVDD
IC50 [1] [nM],concentration at 2 h ([2]; brain) [ng/g],Kp at 2 h [2],concentration at 2 h ([2]; plasma) [ng/mL],IC50 [3] [nM],SMILES
339,54.9,1.2,45.9,309,"O=C(Nc1cn2c(-c3ccc(N4CCNCC4)nc3)cnc(N3CCOCC3)c2n1)c1ccc2ccccc2n1 [Cpd 125, N-(8-Morpholino-5-(6-(piperazin-1-yl)pyridin-3-yl)imidazo[1,2-a]pyrazin-2-yl)quinoline-2-carboxamide hydrochloric acid salt]"
13,49.3,2.26,22.4,34,"c1ccc2nc(OCc3cn4c(-c5ccc(N6CCNCC6)nc5)cnc(N5CCOCC5)c4n3)ccc2c1 [Cpd 126, 4-(5-(6-(piperazin-1-yl)pyridin-3-yl)-2-((quinolin-2-yloxy)methyl)imidazo[1,2-a]pyrazin-8-yl)morpholine methane sulfonic acid salt]"
31,1.85,0.58,16.4,30,"Cc1ccc(-c2cnc(N3CCOCC3)c3nc(COc4ccc5ccccc5n4)cn23)cn1 [Cpd 128, 4-(5-(6-Methylpyridin-3-yl)-2-((quinolin-2-yloxy)methyl)imidazo[1,2-a]pyrazin-8-yl)morpholine methane sulfonic acid salt]"
27,21.9,2.07,11,31,"c1cncc(-c2cnc(N3CCOCC3)c3nc(COc4ccc5ccccc5n4)cn23)c1 [Cpd 129, 4-(5-(Pyridin-3-yl)-2-((quinolin-2-yloxy)methyl)imidazo[1,2-a]pyrazin-8-yl)morpholine methane sulfonic acid salt]"
11,57.3,2.04,28.1,51,"c1ccc2nc(OCc3cn4c(-c5ccc(N6CCOCC6)nc5)cnc(N5CCOCC5)c4n3)ccc2c1 [Cpd 131, 4-(5-(8-Morpholino-2-((quinolin-2-yloxy)methyl)imidazo[1,2-a]pyrazin-5-yl)pyridin-2-yl)morpholine]"
